Assay results from ChEMBL document CHEMBL5236615, “Discovery of Novel N-Heterocyclic-Fused Deoxypodophyllotoxin Analogues as Tubulin Polymerization Inhibitors Targeting the Colchicine-Binding Site for Cancer Treatment” (J Med Chem, 2022).
Active and inactive are the calls of the source. The rule behind the calls is not given here.

Columns and labels:
HCT-116 = test: Antiproliferative activity against human HCT-116 cells measured after 72 hrs by MTT assay; assay type: functional, cell-based; settings: HCT-116, 72 h
[1] = Metabolic stability in human liver microsomes assessed as intrinsic clearance at 1 uM by LC/MS analysis; assay type: ADME, Microsome; settings: read-out: CLH
MCF7 [2] = test: Induction of cell cycle arrest in human MCF7 cells assessed as cdc25c activation at 5 to 25 nM incubated for 24 hrs by Western blotting analysis; assay type: functional, cell-based; settings: dose 5-25 nM
MCF7 [3] = test: Induction of cell cycle arrest in human MCF7 cells assessed as arrest in G2/M phase by measuring accumulation of cyclin B1 at 5 to 25 nM incubated for 24 hrs by Western blotting analysis; assay type: functional, cell-based; settings: dose 5-25 nM
MCF7 [4] = test: Induction of apoptosis in human MCF7 cells assessed as upregulation of cleaved Caspase 9 at 5 to 20 nM measured after 24 hrs by Western blot analysis; assay type: functional, cell-based; settings: dose 5-20 nM
MCF7 [5] = test: Induction of cell cycle arrest in human MCF7 cells assessed as upregulation of Bcl2 phosphorylation at […] at 5 to 20 nM measured after 24 hrs by Western blot analysis; assay type: functional, cell-based; settings: dose 5-20 nM
MCF7 [6] = test: Induction of mitochondria transmembrane potential loss in human MCF7 cells measured after 12 hrs by JC1 dye based assay; assay type: functional; settings: dose 5-20 nM
[7] = Toxicity in Balb/c mouse xenografted with human MCF7 cells assessed as pathological changes in heart at 5 to 20 mg/kg, ip administered for every 2 days for 21 days by hematoxylin and eosin staining based analysis; assay type: organism-based; settings: in vivo, 504 h, dose 5-20 mg/kg, time 21 day
[8] = Toxicity in Balb/c mouse xenografted with human MCF7 cells assessed as pathological changes in kidney at 5 to 20 mg/kg, ip administered for every 2 days for 21 days by hematoxylin and eosin staining based analysis; assay type: organism-based; settings: in vivo, 504 h, dose 5-20 mg/kg, time 21 day
MCF7 [9] = test: Antitumor activity against human MCF7 cells xenografted in Balb/c mouse assessed as decrease in CD31-positive tumor cells in tumor at 20 mg/kg, ip administered for every 2 days for 21 days; assay type: functional, organism-based; settings: time 2.0 day
[10] = Acute toxicity in ICR mouse; settings: in vivo
K562 = test: cells; settings: Homo sapiens, K562, 72 h
Description: Antiproliferative activity against human K562 cells measured after 72 hrs by MTT assay

[11] = target: Tubulin beta (Homo sapiens) (UniProt P68371+Q9H4B7+Q13509+P04350+Q3ZCM7+P07437+Q13885+Q9BVA1+Q9BUF5+A6NNZ2); test: Binding affinity to beta-tubulin colchicine binding site in human MCF-7 cells assessed as inhibition of EBI-beta-tubulin adduct band formation preincubated for 2 hrs followed by EBI addition and measured after 1.5 hrs by EBI competition based Western blotting analysis; assay type: cell-based; settings: MCF7, dose 0.2-25 µM, time 3.5 hrs
Tubulin (Homo sapiens) = Tubulin (Homo sapiens) (UniProt P68371+Q9H4B7+P0DPH7+P68366+Q13509+Q71U36+P04350+Q3ZCM7+P07437+P68363+Q9BQE3+Q6PEY2+Q13885+Q9BVA1+Q9BUF5); test: Disruption of microtubule network in human MCF7 cells assessed as broken microtubule filaments at 20 nM measured after 6 hrs by immunofluorescence assay; assay type: cell-based
MCF7 [12] = test: Induction of apoptosis in human MCF7 cells assessed as upregulation of p-Bim EL protein expression at 5 to 20 nM in presence of roscovitine measured after 24 hrs by Western blot analysis; assay type: functional, cell-based; settings: dose 5-20 nM
MCF7 [13] = test: Induction of cell cycle arrest in human MCF7 cells assessed as CI-PARP at 5 to 20 nM in presence of roscovitine measured after 24 hrs by Western blot analysis; assay type: functional, cell-based; settings: dose 5-20 nM
MCF7 [14] = test: Induction of cell cycle arrest in human MCF7 cells assessed as acetyl-alpha tubulin at 20 nM in presence of roscovitine measured after 24 hrs by Western blot analysis; assay type: functional, cell-based
MCF7 [15] = test: Antiproliferative activity against human MCF7 cells assessed as survival rate at 20 nM measured after 72 hrs by MTT assay relative to control; assay type: functional
MCF7 [16] = test: Antiproliferative activity against human MCF7 cells assessed as survival rate at 20 nM in presence of roscovitine measured after 72 hrs by MTT assay relative to control; assay type: functional
[17] = Antitumor activity against paclitaxel-resistant human MCF7/TxR cells xenografted in Balb/c mouse assessed as tumor growth inhibition at 5 mg/kg, ip administered for every 2 days for 21 days; assay type: functional; settings: read-out: TGI
[18] = Toxicity in Balb/c mouse assessed as pathological changes in blood alanine aminotransferase level at 20 mg/kg, ip administered for every 2 days for 14 days; assay type: organism-based; settings: in vivo, 336 h, time 14 day
[19] = Toxicity in Balb/c mouse assessed as pathological changes in blood aspartate aminotransferase level at 20 mg/kg, ip administered for every 2 days for 14 days; assay type: organism-based; settings: in vivo, 336 h, time 14 day
[20] = Toxicity in Balb/c mouse assessed as pathological changes in blood urea nitrogen level at 20 mg/kg, ip administered for every 2 days for 14 days; assay type: organism-based; settings: in vivo, 336 h, time 14 day
[21] = Toxicity in Balb/c mouse assessed as pathological changes in blood creatinine level at 20 mg/kg, ip administered for every 2 days for 14 days; assay type: organism-based; settings: in vivo, 336 h, time 14 day
[22] = Toxicity in Balb/c mouse assessed as pathological changes in blood lactic dehydrogenase level at 20 mg/kg, ip administered for every 2 days for 14 days; assay type: organism-based; settings: in vivo, 336 h, time 14 day
[23] = Toxicity in Balb/c mouse assessed as pathological changes in blood creatine kinase level at 20 mg/kg, ip administered for every 2 days for 14 days; assay type: organism-based; settings: in vivo, 336 h, time 14 day
[24] = Cardiotoxicity in Sprague-Dawley rat assessed as heart rate at 10 to 60 mg/kg, iv measured upto 60 mins by electrocardiography; assay type: toxicity, organism-based; settings: in vivo, 1 h, dose 10-60 mg/kg
[25] = Cardiotoxicity in Sprague-Dawley rat assessed as RR interval at 10 to 60 mg/kg, iv measured upto 60 mins by electrocardiography; assay type: toxicity, organism-based; settings: in vivo, 1 h, dose 10-60 mg/kg
[26] = Cardiotoxicity in Sprague-Dawley rat assessed as PR interval at 10 to 60 mg/kg, iv measured upto 60 mins by electrocardiography; assay type: toxicity, organism-based; settings: in vivo, 1 h, dose 10-60 mg/kg
[27] = Cardiotoxicity in Sprague-Dawley rat assessed as Qt interval at 10 to 60 mg/kg, iv measured upto 60 mins by electrocardiography; assay type: toxicity, organism-based; settings: in vivo, 1 h, dose 10-60 mg/kg
[28] = Cardiotoxicity in Sprague-Dawley rat assessed as QT correction value at 10 to 60 mg/kg, iv measured upto 60 mins by electrocardiography; assay type: toxicity, organism-based; settings: in vivo, 1 h, dose 10-60 mg/kg
[29] = Cardiotoxicity in Sprague-Dawley rat assessed as QTcf value at 10 to 60 mg/kg, iv measured upto 60 mins by electrocardiography; assay type: toxicity, organism-based; settings: in vivo, 1 h, dose 10-60 mg/kg
[30] = Half life in Sprague-Dawley rat at 10 mg/kg, iv measured upto 8 hrs by LC/MS/MS analysis; assay type: ADME, organism-based; settings: in vivo
[31] = AUC (0 to t) in Sprague-Dawley rat at 10 mg/kg, iv measured upto 8 hrs by LC/MS/MS analysis; assay type: ADME, organism-based; parameters: dose 10 mg/kg, time < 8 hrs, route iv; settings: in vivo
[32] = MRT (0 to t) in Sprague-Dawley rat at 10 mg/kg, iv measured upto 8 hrs by LC/MS/MS analysis; assay type: ADME, organism-based; settings: in vivo
[33] = Tmax in Sprague-Dawley rat at 10 mg/kg, iv measured upto 8 hrs by LC/MS/MS analysis; assay type: ADME, organism-based; settings: in vivo
[34] = Cmax in Sprague-Dawley rat at 10 mg/kg, iv measured upto 8 hrs by LC/MS/MS analysis; assay type: ADME, organism-based; parameters: dose 10 mg/kg, time < 8 hrs, route iv; settings: in vivo

COc1c(Br)cc([C@@H]2c3cc4c(cc3C[C@H]3C(=O)NC(=O)N23)OCCO4)cc1Br
IC50 (HCT-116): 5.9 nM | CLint scaled at 1 µM [1]: 167 mL/min/kg | Activity (MCF7 [2]): Active | Activity (MCF7 [3]): Active | Activity (MCF7 [4]): Active | Activity (MCF7 [5]): Active | Activity (MCF7 [6]): Dose-Dependent Effect | Activity [7]: Non-Toxic | Activity [8]: Non-Toxic | Activity (MCF7 [9]): Active | LD50 [10]: 86.2 mg/kg | IC50 (K562): 5.3 nM

COc1c(Cl)cc([C@@H]2c3cc4c(cc3C[C@H]3C(=O)NC(=O)N23)OCCO4)cc1Cl
IC50 (HCT-116): 8.7 nM | CLint scaled at 1 µM [1]: 66.7 mL/min/kg | Activity [11]: Dose-Dependent Effect | Activity (Tubulin (Homo sapiens)): Active | Activity (MCF7 [2]): Active | Activity (MCF7 [3]): Active | Activity (MCF7 [4]): Active | Activity (MCF7 [5]): Active | Activity (MCF7 [12]): inactive | Activity (MCF7 [13]): inactive | Activity (MCF7 [14]): Active | Activity (MCF7 [15]): 31.55% | Activity (MCF7 [16]): 60.71% | Activity (MCF7 [6]): Dose-Dependent Effect | Activity [7]: Non-Toxic | Activity [8]: Non-Toxic | Activity (MCF7 [9]): Active | LD50 [10]: 211 mg/kg | inhibition in vivo at 5 mg/kg [17]: 38.9% | Activity [18]: Non-Toxic | Activity [19]: Non-Toxic | Activity [20]: Non-Toxic | Activity [21]: Non-Toxic | Activity [22]: Non-Toxic | Activity [23]: Non-Toxic | Activity [24]: Non-Toxic | Activity [25]: Non-Toxic | Activity [26]: Non-Toxic | Activity [27]: Non-Toxic | Activity [28]: Non-Toxic | Activity [29]: Non-Toxic | t1/2 [30]: 1.59 h | AUCt [31]: 6530 ng·h/mL | MRT last at 8 h [32]: 1.79 h | Tmax [33]: 6.6 min | Cmax [34]: 7291 ng/mL | IC50 (K562): 6.3 nM
